From PMC6337391 (Molecules, 2019)
Read-outs that look alike come from different tables or passages of the source.

Experiments:
[1] = ABTS•+ decolorization assay
Method in brief: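 Compounds (10 mM DMSO stocks, diluted) added to ABTS•+ radical generated by potassium persulfate oxidation of ABTS. Decolorization followed as absorbance at room temperature, with Trolox as standard.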

[2] = Inhibition of linoleic acid lipid peroxidation (AAPH)
Method in brief: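 Sodium linoleate oxidation was initiated by AAPH in 0.05 M phosphate buffer, pH 7.4, at 37 °C, with test compound present and DMSO as blank. Conjugated diene hydroperoxide formation was followed as the absorbance increase at 234 nm.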

[3] = In vitro lipid peroxidation of liposomes
[4] = set-up: method as in PMID 25798685; details: DPPH, cited from earlier work
[5] = set-up: method as in PMID 25798685; details: cited from earlier work
soybean lipoxygenase [6] = target: T1, soybean lipoxygenase (Glycine max, UniProt P08170); set-up: method as in PMID 25798685; details: cited from earlier work
T1 sequence (P08170 1-839): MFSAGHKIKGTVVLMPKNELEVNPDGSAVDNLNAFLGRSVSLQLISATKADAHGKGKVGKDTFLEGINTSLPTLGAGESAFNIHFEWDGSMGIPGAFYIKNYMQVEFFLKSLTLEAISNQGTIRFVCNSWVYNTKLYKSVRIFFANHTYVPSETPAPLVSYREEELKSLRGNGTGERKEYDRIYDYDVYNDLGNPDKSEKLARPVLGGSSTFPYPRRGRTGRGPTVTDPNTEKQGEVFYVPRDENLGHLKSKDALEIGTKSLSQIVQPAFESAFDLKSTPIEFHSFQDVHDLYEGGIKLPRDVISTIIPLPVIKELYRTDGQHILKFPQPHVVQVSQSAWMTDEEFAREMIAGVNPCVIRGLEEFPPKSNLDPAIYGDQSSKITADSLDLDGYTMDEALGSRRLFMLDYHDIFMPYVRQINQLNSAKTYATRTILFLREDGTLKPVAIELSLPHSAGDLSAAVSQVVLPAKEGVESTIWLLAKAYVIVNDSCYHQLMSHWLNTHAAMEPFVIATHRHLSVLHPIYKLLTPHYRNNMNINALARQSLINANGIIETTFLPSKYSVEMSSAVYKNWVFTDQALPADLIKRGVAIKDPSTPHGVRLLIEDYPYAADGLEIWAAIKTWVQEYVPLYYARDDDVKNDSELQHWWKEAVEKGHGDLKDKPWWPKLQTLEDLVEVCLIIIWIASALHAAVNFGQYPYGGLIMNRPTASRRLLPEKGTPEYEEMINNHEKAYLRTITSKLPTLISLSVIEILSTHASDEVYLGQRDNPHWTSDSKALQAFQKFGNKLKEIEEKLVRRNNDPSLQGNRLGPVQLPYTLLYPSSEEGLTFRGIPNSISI

[7] = target: acetyl-cholinesterase (AChE) (Electrophorus electricus, UniProt O42275); details: cited from earlier work
Sequence of acetyl-cholinesterase (AChE) (O42275 24-633): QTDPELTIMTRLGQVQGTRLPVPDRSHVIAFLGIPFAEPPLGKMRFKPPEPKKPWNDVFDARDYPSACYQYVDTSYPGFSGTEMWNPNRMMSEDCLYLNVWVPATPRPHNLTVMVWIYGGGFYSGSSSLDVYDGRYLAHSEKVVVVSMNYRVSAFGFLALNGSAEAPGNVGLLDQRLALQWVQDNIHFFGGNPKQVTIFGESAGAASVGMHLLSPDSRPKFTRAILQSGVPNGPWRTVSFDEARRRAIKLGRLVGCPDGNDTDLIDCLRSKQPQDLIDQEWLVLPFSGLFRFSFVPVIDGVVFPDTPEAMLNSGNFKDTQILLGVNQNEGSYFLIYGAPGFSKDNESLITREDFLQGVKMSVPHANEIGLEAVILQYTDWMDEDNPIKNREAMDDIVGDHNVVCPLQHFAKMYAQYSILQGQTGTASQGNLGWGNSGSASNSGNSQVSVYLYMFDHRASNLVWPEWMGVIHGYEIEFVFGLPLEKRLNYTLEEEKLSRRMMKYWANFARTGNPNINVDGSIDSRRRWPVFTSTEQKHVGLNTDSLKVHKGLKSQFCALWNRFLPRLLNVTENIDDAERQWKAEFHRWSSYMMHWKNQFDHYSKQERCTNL

[8] = set-up: method as in PMID 25798685; details: RP-TLC, methanol/water 70/30, SD < 10%; cited from earlier work
[9] = system: L929 mouse fibroblasts cells; set-up: method as in PMID 25798685; details: 24-h incubation, cited from earlier work
[10] = Reducing activity with the stable radical DPPH
Method in brief: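 DPPH (final 0.05 mM) in absolute ethanol mixed with an equal volume of compound at 0.05 or 0.1 mM, ethanol as control. Absorbance at 517 nm read at room temperature after 20 and 60 min, expressed as reducing activity RA%.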

soybean lipoxygenase [11] = target: T1, soybean lipoxygenase; assay: biochemical; format: biochemical; details: soybean LOX; for IC50: read-out: LOX IC50
Method in brief: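 Soybean LOX (enzyme solution 1/9 × 10^−4 w/v in saline) incubated at room temperature with sodium linoleate ([…]) in tris buffer pH 9. Compounds added from DMSO stocks. IC50 derived from several concentrations.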

[12] = Lipophilicity as RM values by RP-TLC; format: physicochemical; set-up: key: RM = log[(1/Rf) − 1]; details: methanol/water 70/30, SD < 10%
Method in brief: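 Reversed-phase TLC on silica gel plates impregnated with 5% (v/v) liquid paraffin, methanol/water 70/30 (v/v) mobile phase, saturated tanks at 24 °C, UV detection. RM = log[(1/Rf) − 1] from five Rf measurements.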

| SMILES | ABTS•+ Inhb. % @ 100 μM [1] [%] | AAPH% @ 100 μM (anti-lipid peroxidation) [2] [%] | % Inhb. of Liposomes LP @ 100 μM [3] [%] | RA% 100 μM 20 min [4] [%] | RA% 100 μM 60 min [4] [%] | ABTS•+ Inhb. % @ 100 μM [5] | % LOX Inhb. @ 100 μM (soybean lipoxygenase [6]) [%] | IC50 (soybean lipoxygenase [6]; soybean LOX) [µM] | % AChE Inhb. @ 100 μM [7] [%] | RM [8] | 1 μM Average (% pi) ± σ [9] [%] | 10 μM Average (% pi) ± σ [9] [%] | 20 μM Average (% pi) ± σ [9] [%] | 50 μM Average (% pi) ± σ [9] [%] | 100 μM Average (% pi) ± σ [9] [%] | RA% 100 μM 20 min [10] | RA% 100 μM 60 min [10] | % LOX Inhb. @ 100 μM (soybean lipoxygenase [11]) [%] | IC50 (soybean lipoxygenase [11]) [µM] | RM [12] |
| --- | --- | --- | --- | --- | --- | --- | --- | --- | --- | --- | --- | --- | --- | --- | --- | --- | --- | --- | --- | --- |
| Cc1c(C)c2c(c(C)c1O)CCC(C)(C(=O)O)O2 (stereo not shown) [Trolox, reference compound] | 96 | 93 | 69 |  |  |  |  |  |  |  |  |  |  |  |  |  |  |  |  |  |
| CN(C)c1ccc(/C=C/C=C/C(=O)c2ccc(O)cc2)cc1 [a3, (2E,4E)-5-(4-(dimethylamino)phenyl)-1-(4-hydroxyphenyl) penta-2,4-dien-1-one] |  |  |  | 18 | 17 | 12% | 56 | 100 | 50 | −0.69 | 14 ± 3.5 | 15 ± 0.8 | 19 ± 1.4 | 14 ± 0.7 | 14 ± 0.7 |  |  |  |  |  |
| O=C(/C=C/c1cccc(Oc2ccccc2)c1)c1ccc(O)cc1 [a2, (E)-1-(4-hydroxyphenyl)-3-(3-phenoxyphenyl) prop-2-en-1-one] |  |  |  | 3 | 4 | No | 10 |  | 26 | 0.36 | 1 ± 0.5 | 3.5 ± 0.7 | 27.5 ± 8.9 | 63 ± 11.2 | 63 ± 11.2 |  |  |  |  |  |
| CN(C)c1ccc(/C=C/C=C/C(=O)c2ccc(OCCOc3ccc(C(=O)/C=C/C=C/c4ccc(N(C)C)cc4)cc3)cc2)cc1 [ei] | 98 | 71 | 4 |  |  |  |  |  |  |  |  |  |  |  |  | No | no | 77 | 62.5 | 0.56 |
| O=C(/C=C/c1ccc(OCc2ccc(Br)cc2)cc1)c1ccc(O)cc1 [a1, (E)-3-(4-((4-bromobenzyl)oxy)phenyl)-1-(4-hydroxyphenyl) prop-2-en-1-one] |  |  |  | 1 | 6 | No | 14 |  | 7 | 0.34 | 1 ± 0.6 | 5 ± 2.8 | 5.5 ± 0.71 | 32 ± 4.9 | 32 ± 4.9 |  |  |  |  |  |
| CN(C)c1ccc(/C=C/C=C/C(=O)c2ccc(OCCCCCCCOc3ccc(C(=O)/C=C/C=C/c4ccc(N(C)C)cc4)cc3)cc2)cc1 [evi, (2E,2′E,4E,4′E)-1,1′-((heptane-1,7-diylbis(oxy))bis(4,1-phenylene))bis(5-(4-(dimethylamino)phenyl)penta-2,4-dien-1-one)] | 79 | 64 | 64 |  |  |  |  |  |  |  |  |  |  |  |  | No | no | 65 | 76 |  |
